Experimental data from patent US12018172B2, “Sidechain functionalized organosiloxanes, coating compositions containing sidechain functionalized organosiloxanes, coated articles, and methods of making and methods of use thereof” (Adaptive Surface Technologies, Inc., priority 2018, dated 2024).

Test: Biocide miscibility screening
Assay type: physicochemical
Conditions: 50:50 mixture, 24 hrs
From the text: Each component was mixed as 50:50 (based on active solids) mixture. The content was allowed to sit for 24 hrs before photographing.

SMILES | Miscibility of Econea and SeaNine 211N with each other | Miscibility with AM-14 | Miscibility with AM-24 | Miscibility with PDMS (silanol)
N#Cc1c(-c2ccc(Cl)cc2)[nH]c(C(F)(F)F)c1Br [Econea, Tralopyril 4-bromo-2-(4-chlorophenyl)-5-(trifluoromethyl)-1H-pyrrole-3-carbonitrile] | not miscible | only partially miscible | good miscibility | only partially miscible
CCCCCCCCn1sc(Cl)c(Cl)c1=O [SeaNine 211N, 4,5-Dichloro-2-n-octyl-4-isothiazolin-4-one] | not miscible | miscible | miscible | did not show complete miscibility
